Results: patent publication US20130158132A1, “Formulation Solution Adapted To Prolong Plasma Times Of Drugs In Mammals Including Humans” (priority 2011, published 2013)

Columns and labels:
[1] = Decoquinate concentration in mouse plasma and liver, with and without prolongation solution; assay type: in vivo; design: concentration of the drug in plasma / concentration of the drug in liver: unit not given here; details: mice; for concentration of the drug in liver / concentration of the drug in plasma: 0.5 ml injected
Method: (§1) The following examples used laboratory rats and mice.
Decoquinate solution was mixed with two solutions: one with the prolongation solution of Example 1 and one without the prolongation solution. Each solution contained an identical and normal dosage of the drug. In both cases, 0.5 ml of solution was injected into mice of approximately identical weight. The concentration of the drug in plasma and liver was chected by high performance then layer chromatography in mouse liver and plasma.

[2] = single 5 mg dose; cited from earlier work
[3] = Glipizide serum level in rats after one-time administration; assay type: in vivo; details: rat, other: injected, about 0.25 mg in 3 ml prolongation solution of Example 1, injected
Method: as §1
Serum testing was conducted after one-time initial administration.

[4] = after 24 hours; cited from earlier work
[5] = rat, in vivo, 24 h
[6] = in vivo; details: rat, Quinine serum level
[7] = Rifampicin serum level in rats after one-time administration; assay type: in vivo; details: for concentration at 14 h / concentration at 32 h: serum
Method: as §1
Serum testing was conducted after one-time initial administration to rats. The Rifampicin level remained:
Control test using water alone on 8 mg/rat. […] Thus, the prolongation solution is effective at reduced drug administration levels.

[8] = human, single 600 mg dose; cited from earlier work
[9] = single 2.0 gram dose, cited from earlier work
[10] = NE-No Prolongation Solution, 0.5 hours
[11] = NE-No Prolongation Solution, 1 hour
[12] = NE-No Prolongation Solution, 2 hours
[13] = NE-No Prolongation Solution, 4 hours
[14] = NE-No Prolongation Solution, 8 hours
[15] = NE-No Prolongation Solution, 24 hours
[16] = PF-Prolongation Solution of Example 1, 0.5 hours
[17] = PF-Prolongation Solution of Example 1, 1 hour
[18] = PF-Prolongation Solution of Example 1, 2 hours
[19] = PF-Prolongation Solution of Example 1, 4 hours
[20] = PF-Prolongation Solution of Example 1, 8 hours
[21] = PF-Prolongation Solution of Example 1, 24 hours
[22] = rat, about 18 mg in 3 ml prolongation solution of Example 1, one-time administration
[23] = about 8 mg/rat with prolongation solution

Structure (SMILES): CCCCCCCCCCOc1cc2c(O)c(C(=O)OCC)cnc2cc1OCC [Decoquinate]
- concentration of the drug in liver [1, 10]: 313860
- concentration of the drug in plasma [1, 10]: 25565
- concentration of the drug in liver [1, 11]: 430820
- concentration of the drug in plasma [1, 11]: 49911
- concentration of the drug in liver [1, 12]: 317950
- concentration of the drug in plasma [1, 12]: 43941
- concentration of the drug in liver [1, 13]: 323180
- concentration of the drug in plasma [1, 13]: 35427
- concentration of the drug in liver [1, 14]: 177470
- concentration of the drug in plasma [1, 14]: 25131
- concentration of the drug in liver [1, 15]: 7014
- concentration of the drug in plasma [1, 15]: 697
- concentration of the drug in liver [1, 16]: 149675
- concentration of the drug in plasma [1, 16]: 15213
- concentration of the drug in liver [1, 17]: 223565
- concentration of the drug in plasma [1, 17]: 24638
- concentration of the drug in liver [1, 18]: 191725
- concentration of the drug in plasma [1, 18]: 27350
- concentration of the drug in liver [1, 19]: 219615
- concentration of the drug in plasma [1, 19]: 29213
- concentration of the drug in liver [1, 20]: 181015
- concentration of the drug in plasma [1, 20]: 27882
- concentration of the drug in liver [1, 21]: 5549
- concentration of the drug in plasma [1, 21]: 457
- drop of Decoquinate level between 1 and 8 hours in plasma ([1]; no prolongation solution): 50%
- drop of Decoquinate level between 1 and 8 hours in liver ([1]; no prolongation solution, compared with the 50% drop in plasma): almost as much
- change in the level of Decoquinate between 1 and 8 hours ([1]; prolongation solution used): relatively little change
- change of concentration of drug in plasma and liver for eight hours ([1]; using the prolongation solution, compared to control): did not change

Structure (SMILES): Cc1cnc(C(=O)NCCc2ccc(S(=O)(=O)NC(=O)NC3CCCCC3)cc2)cn1 [Glipizide]
- Peak serum level of glipizide [2]: 0.1 to 0.5 µg/mL
- time of peak serum level post dose [2]: 1.6 h
- concentration at 26 h ([3]; 26 hours): 570 ng/mL
- concentration at 52 h ([3]; 52 hours): 1400 ng/mL

Structure (SMILES): C=C[C@H]1C[N@@]2CC[C@H]1C[C@H]2[C@H](O)c1ccnc2ccc(OC)cc12 [Quinine]
- plasma level after termination of quinine therapy [4]: barely detectable
- Quinine serum level [5]: 2400 ng/mL
- concentration at 45 min [6]: 4600 ng/mL
- concentration at 4 h [6]: 3000 ng/mL
- concentration at 9 h [6]: 1800 ng/mL
- concentration at 13 h [6]: 1600 ng/mL
- concentration at 15 h [6]: 2100 ng/mL
- concentration at 16 h [6]: 230 ng/mL
- concentration at 24 h [6]: 1400 ng/mL

Structure (SMILES): CO[C@H]1/C=C/O[C@@]2(C)Oc3c(C)c(O)c4c(O)c(c(/C=N/N5CCN(C)CC5)c(O)c4c3C2=O)NC(=O)/C(C)=C\C=C\[C@H](C)[C@H](O)[C@@H](C)[C@@H](O)[C@@H](C)[C@H](OC(C)=O)[C@@H]1C [Rifampicin]
- Rifampicin serum level ([7]; control using water alone, 8 mg/rat, after 14 hours): not being detected
- concentration at 14 h [7, 22]: 19000 ng/mL
- concentration at 32 h [7, 22]: 3500 ng/mL
- concentration at 14 h [7, 23]: 14000 ng/mL
- concentration at 32 h [7, 23]: 8500 ng/mL
- Peak plasma levels of Rifampicin [8]: 3 to 13 µg/mL
- time of peak plasma level post dose [8]: approximately 1.8 hours

Structure (SMILES): Cc1noc(NS(=O)(=O)c2ccc(N)cc2)c1C [sulfisoxazole]
- mean time of peak plasma concentration [9]: 2.5 h
- original dose excreted in the urine ([9]; within 48 hours): About 97%
